# In paper PMC11397024, “Strategic Fluorination to Achieve a Potent, Selective, Metabolically Stable, and Orally Bioavailable Inhibitor of CSNK2” (Molecules, 2024):
# Legend:
# Assay in all cases: NanoBRET K192
# Type in all cases: cell-based
# CDK14 + Y = target: T1, CDK14 + Y (Homo sapiens, UniProt O94921); conditions: HEK293
# T1 construct: purchased Promega (NanoBRET Target Engagement K192 Kinase Selectivity System)
# In short: (§1)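 HEK293 cells were transfected overnight with NanoLuc–kinase fusion vectors, then treated for 2 h at 37 °C with compound (added as 100 μM working solution) plus K10 tracer. BRET was read at 450/610 nm after substrate and extracellular inhibitor, and fractional occupancy was calculated against no-compound controls.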
# JNK3 = target: T2, JNK3 (Homo sapiens, UniProt P53779); conditions: HEK293
# T2 construct: purchased Promega (NanoBRET Target Engagement K192 Kinase Selectivity System)
# In short: as §1
# ULK2 = target: T3, ULK2 (Homo sapiens, UniProt Q8IYT8); conditions: HEK293
# T3 construct: purchased Promega (NanoBRET Target Engagement K192 Kinase Selectivity System)
# T3 sequence (Q8IYT8 whole entry): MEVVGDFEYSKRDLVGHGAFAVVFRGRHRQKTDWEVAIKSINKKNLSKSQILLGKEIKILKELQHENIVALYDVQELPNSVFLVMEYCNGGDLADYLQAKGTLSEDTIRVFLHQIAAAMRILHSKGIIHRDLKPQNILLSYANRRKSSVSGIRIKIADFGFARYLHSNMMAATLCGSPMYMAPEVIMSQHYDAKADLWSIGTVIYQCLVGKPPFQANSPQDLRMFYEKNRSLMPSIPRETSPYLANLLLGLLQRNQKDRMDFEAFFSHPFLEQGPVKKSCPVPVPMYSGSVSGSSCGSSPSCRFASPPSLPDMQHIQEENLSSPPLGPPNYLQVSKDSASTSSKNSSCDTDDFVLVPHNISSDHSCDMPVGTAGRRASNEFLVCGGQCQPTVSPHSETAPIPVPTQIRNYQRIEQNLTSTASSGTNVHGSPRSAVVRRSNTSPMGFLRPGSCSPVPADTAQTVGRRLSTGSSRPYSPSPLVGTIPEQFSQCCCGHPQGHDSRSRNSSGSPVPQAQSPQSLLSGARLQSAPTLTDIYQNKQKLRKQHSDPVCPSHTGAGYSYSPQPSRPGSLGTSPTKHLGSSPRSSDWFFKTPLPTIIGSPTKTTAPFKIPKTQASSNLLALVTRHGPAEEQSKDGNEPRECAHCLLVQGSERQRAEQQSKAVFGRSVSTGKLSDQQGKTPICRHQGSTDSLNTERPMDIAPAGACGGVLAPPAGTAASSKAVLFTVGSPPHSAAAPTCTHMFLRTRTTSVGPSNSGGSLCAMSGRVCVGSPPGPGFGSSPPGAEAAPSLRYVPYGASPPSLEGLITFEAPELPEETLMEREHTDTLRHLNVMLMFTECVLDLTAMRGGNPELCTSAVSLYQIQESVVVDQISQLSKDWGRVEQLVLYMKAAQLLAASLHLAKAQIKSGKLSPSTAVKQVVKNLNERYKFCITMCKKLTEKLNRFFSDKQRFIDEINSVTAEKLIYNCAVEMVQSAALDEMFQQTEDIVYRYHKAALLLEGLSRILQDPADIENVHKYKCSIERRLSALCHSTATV
# In short: as §1
# DYRK1A = target: T4, DYRK1A (Homo sapiens, UniProt Q13627)
# T4 construct: purchased Promega (NanoBRET Target Engagement K192 Kinase Selectivity System)
# In short: as §1
# NTRK2 = target: T5, NTRK2 (Homo sapiens, UniProt Q16620); conditions: HEK293
# T5 construct: purchased Promega (NanoBRET Target Engagement K192 Kinase Selectivity System)
# In short: as §1
# NEK3 = target: T6, NEK3 (Homo sapiens, UniProt P51956); conditions: HEK293
# T6 construct: host or cells: HEK293
# In short: as §1
# CDK10 + L2 = target: T7, CDK10 + L2 (Homo sapiens, UniProt Q15131); conditions: HEK293
# T7 construct: purchased Promega (NanoBRET Target Engagement K192 Kinase Selectivity System)
# In short: as §1
# RIOK2 = target: T8, RIOK2 (Homo sapiens, UniProt Q9BVS4); conditions: HEK293
# T8 construct: purchased Promega (NanoBRET Target Engagement K192 Kinase Selectivity System)
# In short: as §1
# TIE1 = target: T9, TIE1 (Homo sapiens, UniProt P35590); conditions: HEK293
# T9 construct: purchased Promega (NanoBRET Target Engagement K192 Kinase Selectivity System)
# In short: as §1
# ULK3v1 = target: T10, ULK3v1 (Homo sapiens, UniProt Q6PHR2); conditions: HEK293
# T10 construct: host or cells: HEK293
# In short: as §1
# MAPK8 = target: T11, MAPK8 (Homo sapiens, UniProt P45983); conditions: HEK293
# T11 construct: purchased Promega (NanoBRET Target Engagement K192 Kinase Selectivity System)
# In short: as §1
# MAP4K1 = target: T12, MAP4K1 (Homo sapiens, UniProt Q92918); conditions: HEK293
# T12 construct: purchased Promega (NanoBRET Target Engagement K192 Kinase Selectivity System)
# T12 sequence (Q92918 whole entry): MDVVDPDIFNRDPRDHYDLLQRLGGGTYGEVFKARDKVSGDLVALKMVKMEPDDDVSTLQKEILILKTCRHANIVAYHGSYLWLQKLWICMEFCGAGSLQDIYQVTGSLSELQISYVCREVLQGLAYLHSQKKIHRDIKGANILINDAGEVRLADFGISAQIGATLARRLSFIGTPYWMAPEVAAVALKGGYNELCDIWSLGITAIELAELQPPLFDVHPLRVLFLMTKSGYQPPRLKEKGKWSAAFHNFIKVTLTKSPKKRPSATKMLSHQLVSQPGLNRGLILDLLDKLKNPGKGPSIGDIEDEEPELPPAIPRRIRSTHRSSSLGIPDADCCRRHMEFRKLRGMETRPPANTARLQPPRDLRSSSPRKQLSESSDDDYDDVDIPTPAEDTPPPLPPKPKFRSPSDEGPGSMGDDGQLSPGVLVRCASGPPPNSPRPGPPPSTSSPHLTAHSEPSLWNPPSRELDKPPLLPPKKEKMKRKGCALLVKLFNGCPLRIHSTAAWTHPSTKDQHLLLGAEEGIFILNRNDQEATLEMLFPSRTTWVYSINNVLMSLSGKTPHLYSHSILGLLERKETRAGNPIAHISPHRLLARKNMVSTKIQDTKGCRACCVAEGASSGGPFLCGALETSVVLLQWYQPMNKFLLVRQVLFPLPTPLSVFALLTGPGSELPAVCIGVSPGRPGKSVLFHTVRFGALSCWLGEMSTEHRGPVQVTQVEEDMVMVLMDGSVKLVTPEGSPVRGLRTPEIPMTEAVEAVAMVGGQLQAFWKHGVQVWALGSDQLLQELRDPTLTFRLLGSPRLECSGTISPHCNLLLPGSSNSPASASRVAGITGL
# In short: as §1
# ULK1 = target: T13, ULK1 (Homo sapiens, UniProt O75385); conditions: HEK293
# T13 construct: purchased Promega (NanoBRET Target Engagement K192 Kinase Selectivity System)
# In short: as §1
# STK4 = target: T14, STK4 (Homo sapiens, UniProt Q13043); conditions: HEK293
# T14 construct: purchased Promega (NanoBRET Target Engagement K192 Kinase Selectivity System)
# In short: as §1
# STK11 = target: T15, STK11 (Homo sapiens, UniProt Q15831); conditions: HEK293
# T15 construct: purchased Promega (NanoBRET Target Engagement K192 Kinase Selectivity System)
# In short: as §1
# EPHB1 = target: T16, EPHB1 (Homo sapiens, UniProt P54762); conditions: HEK293
# T16 construct: purchased Promega (NanoBRET Target Engagement K192 Kinase Selectivity System)
# In short: as §1
# CDK4 + D3 = target: T17, CDK4 + D3 (Homo sapiens, UniProt P11802); conditions: HEK293
# T17 construct: purchased Promega (NanoBRET Target Engagement K192 Kinase Selectivity System)
# T17 sequence (P11802 whole entry): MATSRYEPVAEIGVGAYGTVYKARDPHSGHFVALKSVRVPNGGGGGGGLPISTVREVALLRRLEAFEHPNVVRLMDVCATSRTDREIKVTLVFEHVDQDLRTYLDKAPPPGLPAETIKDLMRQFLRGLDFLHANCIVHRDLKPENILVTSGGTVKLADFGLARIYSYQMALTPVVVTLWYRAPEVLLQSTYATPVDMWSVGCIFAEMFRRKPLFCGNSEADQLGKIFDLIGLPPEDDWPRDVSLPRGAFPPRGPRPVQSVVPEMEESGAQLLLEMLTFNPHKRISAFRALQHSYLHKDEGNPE
# T17 sequence (P30281 whole entry partner): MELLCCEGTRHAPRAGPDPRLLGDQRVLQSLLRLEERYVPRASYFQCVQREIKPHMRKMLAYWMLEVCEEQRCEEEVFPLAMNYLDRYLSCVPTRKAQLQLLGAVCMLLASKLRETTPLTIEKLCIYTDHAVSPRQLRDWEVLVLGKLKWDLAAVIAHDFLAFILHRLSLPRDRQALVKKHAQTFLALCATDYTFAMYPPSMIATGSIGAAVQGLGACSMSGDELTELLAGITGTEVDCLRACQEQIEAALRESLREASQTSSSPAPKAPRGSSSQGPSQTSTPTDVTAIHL
# In short: as §1
# CSNK1D = target: T18, CSNK1D (Homo sapiens, UniProt P48730); conditions: HEK293
# T18 construct: purchased Promega (NanoBRET Target Engagement K192 Kinase Selectivity System)
# In short: as §1
# CDK2 + E1 = target: T19, CDK2 + E1 (Homo sapiens, UniProt P24941); conditions: HEK293
# T19 construct: purchased Promega (NanoBRET Target Engagement K192 Kinase Selectivity System)
# In short: as §1
# EPHB4 = target: T20, EPHB4 (Homo sapiens, UniProt P54760); conditions: HEK293
# T20 construct: purchased Promega (NanoBRET Target Engagement K192 Kinase Selectivity System)
# In short: as §1
# TEK = target: T21, TEK (Homo sapiens, UniProt Q02763); conditions: HEK293
# T21 construct: purchased Promega (NanoBRET Target Engagement K192 Kinase Selectivity System)
# T21 sequence (Q02763 23-1124): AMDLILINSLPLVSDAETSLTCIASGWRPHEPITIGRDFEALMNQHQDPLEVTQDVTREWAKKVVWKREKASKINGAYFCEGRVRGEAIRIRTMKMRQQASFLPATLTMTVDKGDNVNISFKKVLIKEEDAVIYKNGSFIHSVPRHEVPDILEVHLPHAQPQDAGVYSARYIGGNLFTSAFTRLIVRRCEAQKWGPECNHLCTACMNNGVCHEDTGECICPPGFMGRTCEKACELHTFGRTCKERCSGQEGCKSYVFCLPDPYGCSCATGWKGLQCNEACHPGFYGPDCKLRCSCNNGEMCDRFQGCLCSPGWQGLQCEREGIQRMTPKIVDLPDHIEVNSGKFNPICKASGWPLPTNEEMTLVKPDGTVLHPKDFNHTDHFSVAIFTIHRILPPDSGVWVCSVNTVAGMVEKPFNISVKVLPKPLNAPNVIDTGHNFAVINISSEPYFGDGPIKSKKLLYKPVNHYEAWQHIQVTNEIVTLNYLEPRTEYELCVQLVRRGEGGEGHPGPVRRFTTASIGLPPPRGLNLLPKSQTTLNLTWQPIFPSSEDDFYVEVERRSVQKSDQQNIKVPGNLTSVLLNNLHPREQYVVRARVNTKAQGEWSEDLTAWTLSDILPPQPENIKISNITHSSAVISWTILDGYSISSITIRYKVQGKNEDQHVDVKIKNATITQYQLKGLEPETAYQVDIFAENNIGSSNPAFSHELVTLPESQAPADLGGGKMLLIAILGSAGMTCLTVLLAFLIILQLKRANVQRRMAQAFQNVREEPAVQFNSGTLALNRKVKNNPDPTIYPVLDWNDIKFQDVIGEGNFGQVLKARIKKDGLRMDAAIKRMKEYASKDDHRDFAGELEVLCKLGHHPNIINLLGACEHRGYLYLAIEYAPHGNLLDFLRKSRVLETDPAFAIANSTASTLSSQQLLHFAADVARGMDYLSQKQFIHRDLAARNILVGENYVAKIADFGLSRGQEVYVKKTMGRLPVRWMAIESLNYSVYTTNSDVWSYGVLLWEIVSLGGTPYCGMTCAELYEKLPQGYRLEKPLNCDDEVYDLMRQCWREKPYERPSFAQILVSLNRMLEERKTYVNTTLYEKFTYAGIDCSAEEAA
# In short: as §1
# NEK1 = target: T22, NEK1 (Homo sapiens, UniProt Q96PY6); conditions: HEK293
# T22 construct: purchased Promega (NanoBRET Target Engagement K192 Kinase Selectivity System)
# In short: as §1
# SRMS = target: T23, SRMS (Homo sapiens, UniProt Q9H3Y6); conditions: HEK293
# T23 construct: purchased Promega (NanoBRET Target Engagement K192 Kinase Selectivity System)
# In short: as §1
# FGFR4 = target: T24, FGFR4 (Homo sapiens, UniProt P22455); conditions: HEK293
# T24 construct: purchased Promega (NanoBRET Target Engagement K192 Kinase Selectivity System)
# T24 sequence (P22455 22-802): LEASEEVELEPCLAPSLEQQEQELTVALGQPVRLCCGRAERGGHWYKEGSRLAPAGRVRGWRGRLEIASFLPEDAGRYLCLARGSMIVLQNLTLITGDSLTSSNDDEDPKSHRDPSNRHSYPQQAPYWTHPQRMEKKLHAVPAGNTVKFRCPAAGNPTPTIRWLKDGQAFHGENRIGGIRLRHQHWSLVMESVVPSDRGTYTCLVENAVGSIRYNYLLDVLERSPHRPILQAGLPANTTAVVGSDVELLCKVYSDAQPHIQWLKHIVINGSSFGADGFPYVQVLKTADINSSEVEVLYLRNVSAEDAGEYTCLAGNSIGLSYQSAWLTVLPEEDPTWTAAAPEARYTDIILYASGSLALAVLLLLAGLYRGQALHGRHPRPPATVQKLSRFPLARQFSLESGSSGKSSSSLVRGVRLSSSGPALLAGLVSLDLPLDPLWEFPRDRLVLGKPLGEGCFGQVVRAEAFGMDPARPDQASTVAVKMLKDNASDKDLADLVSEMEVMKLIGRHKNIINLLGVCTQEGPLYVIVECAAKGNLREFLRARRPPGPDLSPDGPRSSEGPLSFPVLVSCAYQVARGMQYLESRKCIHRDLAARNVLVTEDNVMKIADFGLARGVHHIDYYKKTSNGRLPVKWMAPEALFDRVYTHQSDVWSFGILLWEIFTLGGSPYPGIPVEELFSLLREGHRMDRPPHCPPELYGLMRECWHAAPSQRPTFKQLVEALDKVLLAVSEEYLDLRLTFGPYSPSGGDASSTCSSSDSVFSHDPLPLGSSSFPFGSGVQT
# In short: as §1
# CSNK2A1 = target: T25, CSNK2A1 (Homo sapiens, UniProt P68400)
# T25 construct: expressed in transfected cells; host or cells: HEK293
# T25 sequence (P68400 whole entry): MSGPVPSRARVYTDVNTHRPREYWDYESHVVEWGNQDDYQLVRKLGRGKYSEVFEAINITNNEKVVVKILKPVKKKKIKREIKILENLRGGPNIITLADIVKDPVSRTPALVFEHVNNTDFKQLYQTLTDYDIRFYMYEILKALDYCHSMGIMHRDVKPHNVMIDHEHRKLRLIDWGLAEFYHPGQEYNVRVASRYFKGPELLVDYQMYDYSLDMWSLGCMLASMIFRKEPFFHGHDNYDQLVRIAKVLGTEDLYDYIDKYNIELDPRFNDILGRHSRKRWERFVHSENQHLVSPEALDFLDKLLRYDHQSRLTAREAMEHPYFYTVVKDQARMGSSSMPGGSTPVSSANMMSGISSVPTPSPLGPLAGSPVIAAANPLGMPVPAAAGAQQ
# In short: as §1
# MAP4K5 = target: T26, MAP4K5 (Homo sapiens, UniProt Q9Y4K4); conditions: HEK293
# T26 construct: purchased Promega (NanoBRET Target Engagement K192 Kinase Selectivity System)
# In short: as §1
# TNK1 = target: T27, TNK1 (Homo sapiens, UniProt Q13470); conditions: HEK293
# T27 construct: purchased Promega (NanoBRET Target Engagement K192 Kinase Selectivity System)
# In short: as §1
smiles,measurement,setting,value
"CCC(=O)Nc1cc(Nc2cc(NC3CC3)n3ncc(C#N)c3n2)c(F)cc1N1CCC[C@H](NC)C1 [Compound 2, (S)-N-(5-((3-cyano-7-(cyclopropylamino)pyrazolo[1,5-a]pyrimidin-5-yl)amino)-4-fluoro-2-(3-(methylamino)piperidin-1-yl)phenyl)propionamide]",receptor occupancy at 10 µM,CDK14 + Y,29.4%
same,receptor occupancy at 10 µM,JNK3,1%
same,receptor occupancy at 10 µM,ULK2,15.5%
same,% occupancy at 10 μM,"DYRK1A; DYRK1A, HEK293",71%
same,receptor occupancy at 10 µM,"DYRK1A; HEK293, DYRK1A",71.2%
same,receptor occupancy at 10 µM,NTRK2,-0.1%
same,receptor occupancy at 10 µM,NEK3,-11.1%
same,receptor occupancy at 10 µM,CDK10 + L2,13.6%
same,receptor occupancy at 10 µM,RIOK2,-1.8%
same,receptor occupancy at 10 µM,TIE1,20.6%
same,receptor occupancy at 10 µM,ULK3v1,-7.4%
same,receptor occupancy at 10 µM,MAPK8,0.6%
same,receptor occupancy at 10 µM,MAP4K1,5.1%
same,receptor occupancy at 10 µM,ULK1,25.2%
same,receptor occupancy at 10 µM,STK4,6.9%
same,receptor occupancy at 10 µM,STK11,0.1%
same,receptor occupancy at 10 µM,EPHB1,4.7%
same,receptor occupancy at 10 µM,CDK4 + D3,8.5%
same,receptor occupancy at 10 µM,CSNK1D,9.4%
same,receptor occupancy at 10 µM,CDK2 + E1,15.9%
same,receptor occupancy at 10 µM,EPHB4,4.4%
same,receptor occupancy at 10 µM,TEK,5.2%
same,receptor occupancy at 10 µM,NEK1,-1.9%
same,receptor occupancy at 10 µM,SRMS,7.4%
same,receptor occupancy at 10 µM,FGFR4,8.2%
same,% occupancy at 10 μM,"CSNK2A1; CSNK2A1, HEK293",97%
same,receptor occupancy at 10 µM,"CSNK2A1; HEK293, CSNK2A1",97.3%
same,receptor occupancy at 10 µM,MAP4K5,8.5%
same,receptor occupancy at 10 µM,TNK1,6.8%
